# Results published in paper PMC5733122, “Purification, Characterization, and Mode of Action of Pentocin JL-1, a Novel Bacteriocin Isolated from Lactobacillus pentosus, against Drug-Resistant Staphylococcus aureus” (BioMed Research International, 2017).
# Tests used:
# [1] = target: T1, pepsin (Sus scrofa, UniProt P00791); experiment: Enzymatic sensitivity, residual antibacterial activity; type: in vitro ADME; settings: Pepsin 75 μg/mL (pH 1.8, 37°C), 1 h, pentocin JL-1 15 μg/mL
# T1 construct: purchased Sigma-Aldrich
# T1 sequence (P00791 60-385): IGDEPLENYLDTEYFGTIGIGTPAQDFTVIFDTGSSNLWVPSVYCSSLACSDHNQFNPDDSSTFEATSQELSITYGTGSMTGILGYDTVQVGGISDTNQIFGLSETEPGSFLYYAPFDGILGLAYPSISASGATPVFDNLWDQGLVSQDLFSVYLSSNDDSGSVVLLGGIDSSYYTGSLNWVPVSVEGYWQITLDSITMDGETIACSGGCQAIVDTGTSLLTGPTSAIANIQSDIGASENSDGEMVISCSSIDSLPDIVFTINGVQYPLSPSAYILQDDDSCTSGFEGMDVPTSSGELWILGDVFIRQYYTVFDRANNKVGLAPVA
# Description: (§1) To determine enzymatic sensitivity, lyophilized purified pentocin JL-1 dissolved in 0.05% (w/v) acetic acid at 15 μg/mL was treated with the following enzymes at 75 μg/mL under their respective optimum pH and temperatures: proteinase K (pH 7.5, 37°C), trypsin (pH 8.0, 37°C), pepsin (pH 2.0, 37°C), and alkaline protease (pH 8.6, 50°C) (all from Sigma-Aldrich, USA). After incubation for 1 h, the bacteriocin-enzyme mixture was boiled for 5 min to inactivate the enzymes.
# (§2) The residual antibacterial activities of the above samples were calculated using the agar-well diffusion test with MRSA GIM 1.771 as the indicator strain. […] Lyophilized pentocin JL-1 dissolved in 0.05% (w/v) acetic acid at 15 μg/mL with pH 5.5 was used as a control in all assays.
# [2] = test system: alkaline protease; experiment: as above; type: in vitro ADME; settings: 1 h
# Description: as §1, §2
# [3] = test system: Multidrug-resistant S. aureus 3; experiment: Agar-well diffusion test; type: cell-based; settings: 15 μg/mL, pH 5.5, pork isolate resistant to FOX, TET, GEN, mean ± SD, triplicate
# Description: (§3) The intestinal tracts of C. punctatum (grey carpet shark) were dissected and homogenized in 20 mL saline solution under sterile conditions and were then plated in serial dilutions in deMan, Rogosa, and Sharpe (MRS) medium. The plates were incubated aerobically at 30°C for 24 h. Several colonies were picked at random and incubated again in MRS broth. For screening for bacteriocin-producing strains, the agar-well diffusion test was used to detect antimicrobial activity in cell-free supernatants (filtered through a 0.22 μm Millipore filter) obtained by centrifugation (10,000g, 30 min, 4°C) after 18, 36, 60, and 72 h incubation. The Gram-positive strain MRSA GIM 1.771 and the Gram-negative strain Escherichia coli O157:H7 GIM 1.707 were used as indicator strains. Before the experiments, the indicator strains were grown to 10^6 CFU/mL. Then, 1 mL of the culture was mixed with 100 mL soft agar medium and poured onto individual Petri dishes. Subsequently, 8 mm diameter wells were punched onto the plates, and each well was filled with 100 μL of the cell-free supernatants under sterile conditions. The plates were incubated overnight at their respective optimum temperatures, and the clear zones of inhibition were measured in diameter and indicated the presence of antimicrobial activity. In our study, all bacteria culture media and chemical reagents were supplied by Sigma-Aldrich (USA).
# (§4) The agar-well diffusion test as described previously was used to detect the antimicrobial activity of the purified pentocin JL-1 (15 μg/mL, pH 5.5). LAB strains were grown in MRS broth at 30°C for 16 h. Other Gram-positive indicator strains were grown in Tryptone Soy Broth (TSB) medium at 37°C and the Gram-negative indicator strains were grown in Luria-Bertani broth medium at 37°C.
# [4] = test system: Enterococcus faecalis ATCC51575; experiment: Agar-well diffusion test; type: cell-based
# Description: as §3, §4
# [5] = test system: Multidrug-resistant S. aureus 2; experiment: Agar-well diffusion test; type: cell-based; settings: 15 μg/mL, pH 5.5, pork isolate resistant to FOX, GEN, mean ± SD, triplicate
# Description: as §3, §4
# [6] = test system: Pseudomonas aeruginosa CGMCC1.1785; experiment: Agar-well diffusion test; type: cell-based
# Description: as §3, §4
# [7] = test system: Lactobacillus casei ATCC393; experiment: Agar-well diffusion test; type: cell-based; settings: purified pentocin JL-1 15 μg/mL, pH 5.5, inhibition zone diameter class incl. 8 mm well
# Description: as §3, §4
# [8] = test system: Vibrio parahaemolyticus GIM1.306; experiment: Agar-well diffusion test; type: cell-based
# Description: as §3, §4
# [9] = test system: Multidrug-resistant S. aureus 6; experiment: Agar-well diffusion test; type: cell-based; settings: 15 μg/mL, pH 5.5, pork isolate resistant to CIP, FOX, C, SXT, TET, GEN, mean ± SD, triplicate
# Description: as §3, §4
# [10] = test system: Micrococcus luteus CGMCC1.2299; experiment: Agar-well diffusion test; type: cell-based
# Description: as §3, §4
# [11] = test system: Lactobacillus acidophilus ATCC314; experiment: Agar-well diffusion test; type: cell-based
# Description: as §3, §4
# [12] = test system: Multidrug-resistant S. aureus 5; experiment: Agar-well diffusion test; type: cell-based; settings: 15 μg/mL, pH 5.5, pork isolate resistant to FOX, TET, GEN, C, mean ± SD, triplicate
# Description: as §3, §4
# [13] = test system: Bacillus subtilis CGMCC1.1627; experiment: Agar-well diffusion test; type: cell-based
# Description: as §3, §4
# [14] = test system: Multidrug-resistant S. aureus 4; experiment: Agar-well diffusion test; type: cell-based; settings: 15 μg/mL, pH 5.5, pork isolate resistant to FOX, TET, C, mean ± SD, triplicate
# Description: as §3, §4
# [15] = test system: Multidrug-resistant S. aureus 1; experiment: Agar-well diffusion test; type: cell-based; settings: 15 μg/mL, pH 5.5, pork isolate resistant to FOX, TET, mean ± SD, triplicate
# Description: as §3, §4
# [16] = test system: Listeria monocytogenes ATCC19112; experiment: Agar-well diffusion test; type: cell-based
# Description: as §3, §4
# [17] = purified pentocin JL-1 15 μg/mL, pH 5.5, inhibition zone diameter class incl. 8 mm well
substance,measurement,setting,value
"VAKVAR [pentocin JL-1, novel bacteriocin produced by Lactobacillus pentosus JL-1, purified by four-step chromatography, molecular mass 2987.23 Da, cationic and hydrophobic peptide]","Residual inhibitory activity (inhibition zone diameter, mm)","[1]; then boiled 5 min, agar-well diffusion vs MRSA GIM 1.771, mean ± SD, triplicate",0.0 ± 0.0 mm
same,Residual inhibitory activity (%),"[1]; vs MRSA GIM 1.771, relative to control",0.00^∗ %
same,"Residual inhibitory activity (inhibition zone diameter, mm)","[2]; Alkaline protease 75 μg/mL (pH 8.6, 50°C), then boiled 5 min, pentocin JL-1 15 μg/mL, agar-well diffusion vs MRSA GIM 1.771, mean ± SD, triplicate",0.0 ± 0.0 mm
same,Residual inhibitory activity (%),"[2]; Alkaline protease 75 μg/mL (pH 8.6, 50°C), pentocin JL-1 15 μg/mL, vs MRSA GIM 1.771, relative to control",0.00^∗ %
same,inhibitory action after enzyme treatment,[2]; alkaline protease 75 μg/mL,completely abolished
same,Inhibitor zone,[3],24.3 ± 0.7 mm
same,inhibitory activity,"[4]; 15 μg/mL, pH 5.5",inhibited
same,Antimicrobial activity,[4]; [17],++ (++: 15–19)
same,Inhibitor zone,[5],22.5 ± 1.2 mm
same,inhibitory activity,"[6]; 15 μg/mL, pH 5.5",inhibited
same,Antimicrobial activity,[6]; [17],+ (+: 10–14)
same,Antimicrobial activity,[7],+++ (+++: 20–25)
same,inhibitory activity,"[8]; 15 μg/mL, pH 5.5",no inhibitory activity
same,Antimicrobial activity,[8]; [17],−
same,Inhibitor zone,[9],23.7 ± 0.6 mm
same,inhibitory activity,"[10]; 15 μg/mL, pH 5.5",inhibited
same,Antimicrobial activity,[10]; [17],++ (++: 15–19)
same,inhibitory activity,"[11]; 15 μg/mL, pH 5.5",no inhibitory activity
same,Antimicrobial activity,[11]; [17],−
same,Inhibitor zone,[12],23.9 ± 1.5 mm
same,inhibitory activity,"[13]; 15 μg/mL, pH 5.5",inhibited
same,Antimicrobial activity,[13]; [17],++ (++: 15–19)
same,Inhibitor zone,[14],22.4 ± 0.6 mm
same,Inhibitor zone,[15],23.8 ± 0.8 mm
same,inhibitory activity,"[16]; 15 μg/mL, pH 5.5",inhibited
same,Antimicrobial activity,[16]; [17],++ (++: 15–19)
